Experimental data taken from patent publication US10793509B2, “Compounds useful in the treatment of neoplastic diseases” (UNIVERSITÄT ZU KÖLN, priority 2013, dated 2020).
pEC50: −log10 of the molar value.

How the values were obtained:
[1] = test system: GRANTA-519; assay: CellTiter-Glo ATP assay, GRANTA-519 cell line; assay type: cell-based; settings: Homo sapiens, Granta-519; 24 h, CellTiter-Glo
Protocol: (§1) Several cell lines (n=5) were treated with different concentrations of p-NO-ASA, B9, B12 and B13 ranging between 0.01 μM and 1000 μM for 24 hours followed by addition of luminogenic CellTiter-Glo®-reagent. […] For each cell line the order of used compound in the bar chart is from left to right as following: p-NO-ASA, B9, B12, B13.
(§2) Treatment success in CLL may depend on cytogenetic and molecular parameters as for instance del13q or TP53 gene disruption. Therefore, the NO-ASA derivatives were examined on (chronic) B cell lymphoma cell lines with different geno- and phenotypes (JVM3, EHEB, U2932, MEC-1, GRANTA-519). The cells were treated with concentrations between 0.01 and 1000 μM for 24 h followed by the addition of luminogenic CellTiter-Glo® reagent.

[2] = test system: EHEB; assay: CellTiter-Glo ATP assay, EHEB cell line; assay type: cell-based; settings: 24 h, 0.01-1000 μM
Protocol: as §1, §2

[3] = test system: ovarian adenocarcinoma cell line COLO704; assay: Annexin V/PI assay, COLO704; assay type: cell-based; settings: COLO 704, 24 h
[4] = test system: acute myeloid leukemia cell line SH2; assay: Viability assay (ATP content, CellTiter-Glo), SH2; assay type: cell-based; settings: 24 h
Protocol: (§3) In the following experiment the possible therapeutic window for NO-ASA derivatives was investigated. […] The melanoma cell line MelJuso, the colon carcinoma cell line SW480, the small cell lung cancer cell line HCC44, the ovarian adenocarcinoma cell line COLO704 and the acute myeloid leukemia cell line SH2 were treated with concentrations of p-NO-ASA and B9, B12 and B13 in a range between 0.01 μM and 100 μM for 24 h, followed by addition of luminogenic CellTiter-Glo® reagent.
(§4) Table accompanying Example 5. Overview of the EC50 values of cell survival analyzed by ATP content and Annexin V/PI assay. n.t.; not tested

[5] = test system: Primary CLL cells; assay: AnnexinV/PI assay on primary CLL cells; assay type: cell-based, human
Protocol: PBMCs or CLL cells (5*10^6 cells/ml) were incubated for 24 h with different compounds at concentrations from 0.01 to 100 μM. Cell survival was normalized to DMSO control [vehicle]. See Example 1.
Primary CLL or peripheral blood mononuclear cells of healthy donors (5*10^6/ml) were incubated for 24 h with different compounds according to the invention and NO-ASA as a control. The compounds were added in different concentrations, in particular in concentrations from 0.01-100 μM. Cell survival was assessed by AnnexinV/PI assay (Kit commercially available, e.g. by Biotium Inc, USA; or Phoenix Flow Systems, US), the results were normalized to DMSO control [vehicle] and dose response curves were calculated using a non-linear regression model.

[6] = test system: colon carcinoma cell line SW480; assay: cells; assay type: cell-based; settings: Homo sapiens, SW480, 24 h, read-out: Viability assay EC50, SW480
Protocol: The cell lines (n=5) were treated with different concentrations of p-NO-ASA, B9, B12 and B13 ranging between 0.01 μM and 100 μM for 24 hours followed by addition of luminogenic CellTiter-Glo®-reagent (see Example 5).
as §3, §4

[7] = test system: acute myeloid leukemia cell line SH2; assay: Annexin V/PI assay, SH2; assay type: cell-based; settings: 24 h
[8] = test system: U2932; assay: CellTiter-Glo ATP assay, U2932 cell line; assay type: cell-based; settings: 24 h, 0.01-1000 μM
Protocol: as §1, §2

[9] = test system: JVM-3; assay: CellTiter-Glo ATP assay, JVM-3 cell line; assay type: cell-based, human; settings: 24 h, 0.01-1000 μM
Protocol: as §1, §2

[10] = test system: caspases 3 and 7; assay: caspase-3/7 assay in CLL cells; assay type: cell-based; settings: Homo sapiens, CLL cell, 6 h, 0.01-20 μM, luminogenic caspase-3/7-substrate, read-out: activation of caspases 3 and 7, EC50
Description: FIG. 8 depicts the involvement of caspase-mediated apoptosis in CLL cells upon treatment with p-NO-ASA, B9, B12 and B13. Representative blots of 3 independent experiments are shown. Untreated and DMSO (1%) treated cells served as control. beta-actin=loading control (FIG. 8A). para-NO-ASA and B9 induced a concentration-dependent increase in caspase-3/7-activation (FIG. 8B).
To determine whether the toxicity on CLL cells is due to caspase-mediated apoptosis, the cleavage of PARP (Poly(ADP-ribose)-Polymerase 1) and XIAP (X-linked inhibitor of apoptosis) was analyzed by immunoblot. CLL cells were cultured alone, with 1% DMSO or with EC50 of p-NO-ASA, meta-NO-ASA, B9, B12 and B13 for 24 h followed by protein lysation and western blot analysis using antibodies to detect prognostic apoptotic proteins (XIAP, PARP). […] All compounds tested induced PARP and XIAP cleavage (FIG. 8A). Further a caspase-3/7 assay was carried out. CLL cells were incubated with para-NO-ASA and B9 in different concentrations ranging from 0.01 μM to 20 μM for 6 h followed by addition of luminogenic caspase-3/7-substrate. This indicates the reduction of the survival of CLL cells upon treatment with p-NO-ASA and B9 due to the induction of caspase-mediated apoptosis.

[11] = test system: TP53-mutated CLL cells; assay: FACS analysis of treated CLL cells with TP53 mutation; assay type: cell-based, human; settings: 24 h, 0.01-100 μM, FIG. 6
Protocol: Isolated, primary CLL cells were treated for 24 h with the EC50 of the different compounds and the ATP-content was measured by flow cytometry. For each used compound the order of mean EC50 concentrations in the bar chart is from left to right as following: EC50 CLL cells TP53 unmut (unmutated=without mutation), EC50 CLL cells TP53 mut (mutated=with mutation).
Further, the derivatives B9, B12 and B13 were tested in comparison to para-NO-ASA on CLL cells which harbour a TP53 mutation. The patient subgroup with a TP53 disruption is characterized by a considerable dismal prognosis. CLL cells of patients with and without the TP53 mutation were treated with five different concentrations (0.01, 0.1, 1, 10, 100 μM) of para-NO-ASA, B9, B12 and B13 for 24 h.

O=C(Oc1ccc(CO[N+](=O)[O-])cc1)c1ccccc1 [B9, 4-((nitrooxy)methyl)phenyl benzoate]
pEC50 [1]: 5.64
ATP content in EHEB [2]: reduced ATP content
pEC50 [3]: 5.14
pEC50 [4]: 6.80
selectivity for CLL cells compared to PBMCs ([5]; FIG. 3, sensitivity of CLL cells vs PBMCs, 24 h): selective for CLL cells
pEC50 ([5]; Homo sapiens, CLL cell, 24 h incubation, 0.01-100 μM, 5*10^6 cells/ml, normalized to DMSO control, read-out: AnnexinV/PI assay EC50 Primary CLL): 5.73
pEC50 [6]: 4.50
pEC50 [7]: 5.71
ATP content in U2932 [8]: reduced ATP content
ATP content in JVM-3 [9]: reduced ATP content
pEC50 [10]: 6.64
effect on TP53-mutated CLL cells in comparison to para-NO-ASA (B1) [11]: more effective
